Marks after values point to notes of the source that are not given here.
Columns and labels:
PARP = PARP proteolysis (Western blot); format: cell-based, human; details: Mia PACA-2, 24 hours, 100 μM
Experimental: BSp73AS cells were cultured for 6 hours and Mia PACA-2 cells were cultured for 24 hours in the presence or absence of 100 μM of each rutin, quercetin or trans-resveratrol and with or without 50 μM of each […]. The cells were washed twice with PBS and lysed by incubating for 20 minutes at 4° C. in lysis buffer comprising 0.15 M NaCl, 50 mM Tris (pH 7.2), 1% deoxycholic acid (wt/vol), 1% Triton X-100 (wt/vol), 0.1% […] (wt/vol) and 1 mM PMSF, as well as 5 μg/ml each of protease inhibitors, pepstatin, leupeptin, chymostatin, antipain, and aprotinin. Then the cell lysates were centrifuged for 20 minutes at 15,000 g at 4° C. The supernatants were separated by 4-20% SDS-PAGE for 2 hours at 120 V using precast Tris-glycine gels and a Mini-Cell gel apparatus (Novex, San Diego, Calif.). Separated proteins were electrophoretically transferred to a nitrocellulose membrane for 2 hours at 30 V using a Novex Blot Module (Novex, San Diego, Calif.). Nonspecific binding was blocked by 1 hour incubation of nitrocellulose membranes in 5% (wt/vol) nonfat dry milk in Tris-buffered saline (TBS; pH 7.5). Blots were then incubated overnight at 4° C. with rabbit polyclonal antibody against poly (ADP-ribose) polymerase (PARP) (Santa Cruz Biotechnology, Santa Cruz, Calif.) (1;3,000) in an antibody buffer comprising (1% (wt/vol) non-fat dry milk in TTBS (0.05% vol/vol) Tween-20 in TBS), washed 3 times with TTBS and finally incubated for 1 hour with a peroxidase-labeled secondary antibody in the antibody buffer. Blots were developed for visualization using ECL detection kit. To test for equal protein loading, the blots were stripped and re-probed with an antibody against tubulin. When processing of a protein was measured, a decrease in unprocessed full-length form was measured concomitantly with the increase in the cleaved, active form. The experiment was repeated 3 times with similar results.

Mia PACA-2 cells = experiment: Oligonucleosomal DNA fragmentation by cell death ELISA; format: cell-based, human; details: Mia PACA-2, 72 hours, with serum; DPI 15 μM, Tiron 10 mM, genistein 100 μM, trans-resveratrol 100 or 50 μM
Experimental: Mia PACA-2 cells were cultured for 72 hours in the presence of serum with or without 15 μM DPI, 10 mM Tiron, 100 μM genistein, 100 μM or 50 μM trans-resveratrol, or a combination thereof. Oligonucleosomal DNA fragmentation was measured in cell lysates by cell death ELISA.
Annexin staining was conducted as described above. Cells were collected, washed with PBS, and centrifuged for 10 min at 200×g. DNA fragmentation was determined using Cell Death Detection ELISA Plus kit (Roche Molecular Biochemicals).
To determine the role of caspases in the effects of combinations of agents on apoptosis, the effects of caspase-3 activity (DEVDase activity) as well as the effect of the broad spectrum caspase inhibitor, Z-VAD, on apoptosis was measured. Specifically, Mia PACA-2 cells were cultured for 72 hours in the presence of serum with or without 100 μM Z-VAD, 15 μM DPI, 100 μM trans-resveratrol, 100 μM genistein, a combination of trans-resveratrol and DPI, and a combination of genistein and DPI. DEVDase activity was measured in whole cell lysates with a fluorimetric assay. DNA fragmentation was measured in cell lysates by cell death ELISA.
In particular, Mia PACA-2 cells were cultured for 72 hours in the presence of serum with or without 50 μM trans-resveratrol (RS), 15 μM DPI, a combination of DPI and trans-resveratrol (RS+DPI), 10 μM MG-132 alone and in combination with RS, DPI, and RS+DPI. Internucleosomal DNA fragmentation was measured in cell lysates by cell death ELISA.

Mia PACA-2 = experiment: Pancreatic cancer growth assay in nude mouse model; format: in vivo
Experimental: To determine the effect of a polyphenolic compound on pancreatic cancer cell growth, the following assay using a nude mouse model was conducted. Specifically, the effect of quercetin was tested in a nude mouse model of pancreatic cancer using the highly malignant pancreatic cancer cell line, Mia PACA-2.
Tumor induction in nude mice was performed as described by Hotz HC, et al. (2001) Pancreas 22:113-121, which is herein incorporated by reference. For subcutaneous tumor formation, 1×10^7 Mia PACA-2 tumor cells were subcutaneously injected in the medio-dorsal region of a nude mouse. After 4 weeks a small tumor fragment, about 1 mm in diameter, was removed from the subcutaneous tumor and transplanted into the pancreatic tail of mice of two study groups. Ten days after tumor transplantation, treatment with or without quercetin was initiated. The treated animals received daily intraperitoneal injections of 1.3 mg quercetin dissolved in DMSO; the control group received DMSO only by intraperitoneal injection. The animals were sacrificed once clinical tumor signs including severe cachexia ascites with abdominal distension or heavy tumor burden, larger than 1.5 cm, became apparent. Tumor volume was calculated as described by Hotz H C, et al. (2001) as 0.5×length×width×depth. Metastatic tumor spread was determined macroscopically at autopsy in all thoracic, abdominal, retroperitoneal and pelvic organs. All macroscopic suspicious lesions were further confirmed as tumor dissemination by microscopic analysis. Each value in the metastatic score represented a different organ of metastatic tumor spread.

[1] = nude mice with Mia PACA-2 tumor in pancreatic tail, daily i.p. 1.3 mg quercetin, means ± SE, n=8

| Structure (SMILES) | PARP cleavage (PARP) | oligonucleosomal DNA fragmentation (apoptosis) (Mia PACA-2 cells) | growth of pancreatic cancer in a nude mouse model (Mia PACA-2) | Number of metastatic sites (organs with metastatic lesions) (Mia PACA-2; [1]) | Tumor volume, cm^3 (Mia PACA-2; [1]) | Number of metastatic sites (organs with metastatic lesions) (Mia PACA-2; nude mice with Mia PACA-2 tumor in pancreatic tail, daily i.p. 1.3 mg quercetin, means ± SE, n=8, listed as Quercetin) | Survival (Mia PACA-2; nude mice with Mia PACA-2 tumor transplanted into pancreatic tail, daily intraperitoneal 1.3 mg quercetin in DMSO, means ± SE, n=8, days after transplantation until animal appeared ill from abdominal distension) |
| --- | --- | --- | --- | --- | --- | --- | --- |
| Oc1ccc(/C=C/c2cc(O)cc(O)c2)cc1 [trans-resveratrol] | cleaved to its activated form | either no or small effects |  |  |  |  |  |
| O=c1c(-c2ccc(O)cc2)coc2cc(O)cc(O)c12 [genistein] |  | either no or small effects | inhibition of growth |  |  |  |  |
| O=c1c(O)c(-c2ccc(O)c(O)c2)oc2cc(O)cc(O)c12 [quercetin] | cleaved to its activated form |  | inhibition of growth | 0.6 | 1.56 ± 0.27* cm^3 | 0.62 ± 0.26 | 75.00 ± 2.50 days |

Reference: patent US6953786B2, “Compositions comprising plant-derived polyphenolic compounds and inhibitors of reactive oxygen species and methods of using thereof” (The Regents of the University of California, priority 2002, dated 2005)
